Test results from patent publication US10106538B2, “Inhibitors of protein kinases” (PRINCETON DRUG DISCOVERY INC, priority 2015, dated 2018).
Blank lines part the entries; values can stand above or below the compound they belong to.

Key:
PDGFRα(T674I) = molecular target: T1, PDGFRα(T674I) (Homo sapiens, UniProt P16234, T674I); assay: Off-chip Mobility Shift Assay (MSA) kinase inhibition; format: biochemical
T1 construct: purchased Carna Biosciences
Experimental: (§1) Off-chip Mobility Shift Assay (MSA) by Cama Biosciences, Inc (Natick, Mass.) a used for measuring the kinase activity and inhibition. • 1) The 5 μL of x4 compound solution, 5 μL of x4 Substrate/ATP/Metal solution, and 10 μL of x2 kinase solution were prepared with assay buffer (20 mM HEPES, 0.01% Triton X100, 2 mM DTT, pH 7.5) and mixed and incubated in a well of polypropylene 384 well microplate for 1 or 5 hour(s)* at room temperature. (*; depending on kinase) • 2) 70 μL of Termination Buffer (QuickScout Screening Assist A; Cama Biosciences) was added to the welt • 3) The reaction mixture was applied to LabChip system (Perkin Elmer), and the product and substrate peptide peaks were separated and quantitated. • 4) The kinase reaction was evaluated by the product ratio calculated from peak heights of product (P) and substrate (S) peptides (P/(P+S)). • 5) The reaction conditions were followed according to assay protocols of Ca n Biosciences, Inc (BMA 3F, 1-5-5 Minatojima-Minamimachi, Chuo-ku, Kobe 650-0047, Japan; www.carnabio.com). • 6 Data analysis: The readout value of reaction control (complete reaction mixture) was set as a 0% inhibition, and the readout value of background (Enzyme (−)) was set as a 100% inhibition, then the percent inhibition of each test solution was calculated, […]

PDGFRα(D842V) = molecular target: T2, PDGFRα(D842V) (Homo sapiens, UniProt P16234, D842V); assay: as above; format: biochemical
T2 construct: purchased Carna Biosciences
Experimental: as §1

PDGFRα(V561D) = molecular target: T3, PDGFRα(V561D) (Homo sapiens, UniProt P16234, V561D); assay: as above; format: biochemical
T3 construct: purchased Carna Biosciences
Experimental: as §1

[1] = test system: breast cancer cell line T-47D; assay: Cell growth assay with breast cancer cell line T-47D; format: cell-based; conditions: Homo sapiens, T47D, 72 h, T-47D cells, PrestoBlue Cell Viability reagent, read-out: IC50 inhibition of cell growth
Experimental: […] of the complete medium was then gently dispersed over the surface of the cell layer for several times. The cell concentration was adjusted to 1×10^4 cells/mL with the complete medium. A 100 μL aliquot of the cell suspension was added to the well of a 96-well plate, and the plate was incubated overnight at 37° C. under 5% CO2 with saturated humidity. On the next day, the medium in each well was aspirated and replaced with a 100 μL aliquot of pre-warmed complete medium at 37° C. in the presence or absence of the test compounds at various concentrations from 0-100 μM. The test compounds were dissolved in DMSO, and the final DMSO concentration in the cell culture was no more than 1%. The plate was incubated for 72 hours at 37° C. under 5% CO2 with saturated humidity. At end of the cell culture a 10 μL aliquot of PrestoBlue® Cell Viability reagent (ThermoFisher Scientific) was added into the well and the plate was incubated at 37° C. for 30 min. The absorption at 570 and 600 nm were measured with a SpectraMax Microplate reader (Molecular Devices), The absorbance at […] was normalized to that at 600 nm.

AXL = molecular target: T4, AXL (Homo sapiens, UniProt P30530); assay: Off-chip Mobility Shift Assay (MSA) kinase inhibition; format: biochemical; conditions: inhibitor concentration 0.1 μM
T4 construct: purchased Carna Biosciences
T4 sequence (P30530 26-894): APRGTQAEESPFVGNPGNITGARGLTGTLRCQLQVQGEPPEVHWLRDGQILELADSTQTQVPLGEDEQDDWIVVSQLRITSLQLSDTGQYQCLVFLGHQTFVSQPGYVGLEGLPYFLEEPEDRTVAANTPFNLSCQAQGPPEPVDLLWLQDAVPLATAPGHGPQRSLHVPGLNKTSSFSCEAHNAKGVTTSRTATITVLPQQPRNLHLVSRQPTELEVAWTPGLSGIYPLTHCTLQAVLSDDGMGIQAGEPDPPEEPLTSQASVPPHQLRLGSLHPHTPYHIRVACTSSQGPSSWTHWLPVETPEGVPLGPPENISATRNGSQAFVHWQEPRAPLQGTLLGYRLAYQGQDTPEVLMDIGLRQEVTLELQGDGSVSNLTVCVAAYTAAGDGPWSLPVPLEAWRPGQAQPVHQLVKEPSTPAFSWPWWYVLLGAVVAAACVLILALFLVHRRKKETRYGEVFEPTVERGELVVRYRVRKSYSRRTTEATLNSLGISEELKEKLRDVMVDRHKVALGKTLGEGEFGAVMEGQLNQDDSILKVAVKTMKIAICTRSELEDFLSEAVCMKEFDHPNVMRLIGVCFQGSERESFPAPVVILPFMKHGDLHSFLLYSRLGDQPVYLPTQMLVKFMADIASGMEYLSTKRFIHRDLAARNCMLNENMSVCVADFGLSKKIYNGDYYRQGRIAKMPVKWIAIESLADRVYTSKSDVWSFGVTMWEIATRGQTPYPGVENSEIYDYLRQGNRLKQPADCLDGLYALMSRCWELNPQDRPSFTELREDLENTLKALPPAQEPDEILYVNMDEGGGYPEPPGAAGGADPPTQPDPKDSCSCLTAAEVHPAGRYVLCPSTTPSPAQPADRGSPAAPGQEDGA
Summary of the method: (§2)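 Incubation of each kinase with compound plus substrate/ATP/metal for 1 or 5 h, room temperature, 20 mM HEPES pH 7.5 buffer; off-chip mobility shift assay.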

AurB = molecular target: T5, AurB (Homo sapiens, UniProt Q96GD4); assay: as above; format: biochemical; conditions: inhibitor concentration 0.1 μM
T5 construct: purchased Carna Biosciences, Inc
Summary of the method: as §2

ROCK1 = molecular target: T6, ROCK1 (Homo sapiens, UniProt Q13464); assay: as above; format: biochemical; conditions: inhibitor concentration 1 μM
T6 construct: purchased Carna Biosciences
Experimental: as §1

FRK = molecular target: T7, FRK (Homo sapiens, UniProt P42685); assay: as above; format: biochemical; conditions: inhibitor concentration 1 μM
T7 construct: purchased Carna Biosciences
Experimental: as §1

ROCK2 = molecular target: T8, ROCK2 (Homo sapiens, UniProt O75116); assay: as above; format: biochemical; conditions: inhibitor concentration 1 μM
T8 construct: purchased Carna Biosciences
Experimental: as §1

PKD1 = molecular target: T9, PKD1 (Homo sapiens, UniProt Q15139); assay: as above; format: biochemical; conditions: inhibitor concentration 1 μM
T9 construct: purchased Carna Biosciences
Experimental: as §1

RET(S891A) = molecular target: T10, RET(S891A) (Homo sapiens, UniProt P07949, S891A); assay: as above; format: biochemical
T10 construct: purchased Carna Biosciences
Experimental: as §1

MAP2K5 = molecular target: T11, MAP2K5 (Homo sapiens, UniProt Q13163); assay: as above; format: biochemical; conditions: inhibitor concentration 1 μM
T11 construct: purchased Carna Biosciences
Experimental: as §1

[2] = inhibitor concentration 0.01 μM, 0.01 µM
[3] = inhibitor concentration 0.01 μM

T5 sequence (Q96GD4 whole entry): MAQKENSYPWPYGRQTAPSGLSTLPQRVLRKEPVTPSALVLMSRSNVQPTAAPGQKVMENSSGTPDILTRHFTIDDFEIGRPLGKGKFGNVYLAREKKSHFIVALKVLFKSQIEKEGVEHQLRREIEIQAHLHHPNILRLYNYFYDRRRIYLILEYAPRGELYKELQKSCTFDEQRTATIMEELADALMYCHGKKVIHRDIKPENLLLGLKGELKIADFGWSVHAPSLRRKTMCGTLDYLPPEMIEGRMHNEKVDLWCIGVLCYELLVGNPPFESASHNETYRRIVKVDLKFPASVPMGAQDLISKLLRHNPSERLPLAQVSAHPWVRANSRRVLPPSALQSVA
T5 sequence (Q9NQS7 803-918 partner limits assumed): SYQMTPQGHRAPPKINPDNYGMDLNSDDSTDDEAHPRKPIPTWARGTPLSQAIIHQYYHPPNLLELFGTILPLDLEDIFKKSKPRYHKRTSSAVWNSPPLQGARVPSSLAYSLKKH
T3 sequence (P16234 24-1089 V561D): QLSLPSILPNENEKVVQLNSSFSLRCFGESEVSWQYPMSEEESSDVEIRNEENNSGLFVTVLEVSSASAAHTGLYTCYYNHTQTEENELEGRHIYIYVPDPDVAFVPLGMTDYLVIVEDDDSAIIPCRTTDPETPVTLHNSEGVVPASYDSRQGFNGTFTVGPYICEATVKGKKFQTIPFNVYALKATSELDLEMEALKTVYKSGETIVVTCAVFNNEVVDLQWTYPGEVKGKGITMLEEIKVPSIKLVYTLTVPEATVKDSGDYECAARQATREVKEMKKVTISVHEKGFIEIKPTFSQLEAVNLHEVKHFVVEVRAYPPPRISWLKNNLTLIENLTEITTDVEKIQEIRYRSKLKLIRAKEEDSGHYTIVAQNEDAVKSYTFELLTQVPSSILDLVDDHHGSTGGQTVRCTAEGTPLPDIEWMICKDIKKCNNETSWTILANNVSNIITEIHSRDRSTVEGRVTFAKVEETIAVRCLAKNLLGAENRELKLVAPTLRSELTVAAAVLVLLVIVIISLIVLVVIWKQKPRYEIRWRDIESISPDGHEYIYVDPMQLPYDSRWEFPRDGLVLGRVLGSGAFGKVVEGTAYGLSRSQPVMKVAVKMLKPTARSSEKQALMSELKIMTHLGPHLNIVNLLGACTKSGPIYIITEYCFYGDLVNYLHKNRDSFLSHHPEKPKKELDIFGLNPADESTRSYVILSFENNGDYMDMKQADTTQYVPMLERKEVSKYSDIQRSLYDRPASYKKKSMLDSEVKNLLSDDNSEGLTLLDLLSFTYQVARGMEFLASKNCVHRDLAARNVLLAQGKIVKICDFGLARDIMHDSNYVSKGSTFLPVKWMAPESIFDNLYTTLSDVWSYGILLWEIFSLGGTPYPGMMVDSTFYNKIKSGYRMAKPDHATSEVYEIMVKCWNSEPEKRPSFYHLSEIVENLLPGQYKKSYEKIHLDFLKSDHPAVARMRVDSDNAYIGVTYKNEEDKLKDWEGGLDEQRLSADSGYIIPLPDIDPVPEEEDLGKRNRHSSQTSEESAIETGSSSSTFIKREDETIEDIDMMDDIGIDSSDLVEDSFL
T10 sequence (P07949 29-1114 S891A): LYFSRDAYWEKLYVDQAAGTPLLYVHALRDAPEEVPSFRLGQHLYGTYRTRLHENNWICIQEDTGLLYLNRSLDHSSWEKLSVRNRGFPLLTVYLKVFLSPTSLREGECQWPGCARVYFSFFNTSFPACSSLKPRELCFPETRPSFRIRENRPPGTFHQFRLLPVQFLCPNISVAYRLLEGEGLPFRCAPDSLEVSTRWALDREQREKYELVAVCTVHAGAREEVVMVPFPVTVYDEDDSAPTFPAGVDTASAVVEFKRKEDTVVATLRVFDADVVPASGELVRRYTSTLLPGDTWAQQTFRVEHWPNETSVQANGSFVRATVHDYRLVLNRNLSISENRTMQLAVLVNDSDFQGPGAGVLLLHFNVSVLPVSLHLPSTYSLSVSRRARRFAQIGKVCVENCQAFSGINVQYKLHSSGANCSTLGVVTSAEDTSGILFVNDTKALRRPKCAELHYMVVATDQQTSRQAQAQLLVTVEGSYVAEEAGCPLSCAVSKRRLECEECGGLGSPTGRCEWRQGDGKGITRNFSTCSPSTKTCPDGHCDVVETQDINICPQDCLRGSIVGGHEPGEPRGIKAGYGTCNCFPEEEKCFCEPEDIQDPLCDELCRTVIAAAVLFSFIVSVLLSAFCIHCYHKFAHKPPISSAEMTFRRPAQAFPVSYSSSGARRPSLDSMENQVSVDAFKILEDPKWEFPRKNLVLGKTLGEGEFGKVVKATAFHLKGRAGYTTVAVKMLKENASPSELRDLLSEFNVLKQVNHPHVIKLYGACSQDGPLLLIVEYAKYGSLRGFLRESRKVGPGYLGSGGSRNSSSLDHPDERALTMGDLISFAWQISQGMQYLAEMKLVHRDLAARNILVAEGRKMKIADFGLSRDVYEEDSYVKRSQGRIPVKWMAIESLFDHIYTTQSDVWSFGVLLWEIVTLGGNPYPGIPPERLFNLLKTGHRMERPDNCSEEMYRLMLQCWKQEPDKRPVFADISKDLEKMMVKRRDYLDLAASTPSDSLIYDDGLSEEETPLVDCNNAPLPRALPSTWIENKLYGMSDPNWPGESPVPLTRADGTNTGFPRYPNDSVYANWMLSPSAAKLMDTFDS
T1 sequence (P16234 24-1089 T674I): as the sequence (P16234 24-1089 V561D) above, with D538V, T651I counted along it
T2 sequence (P16234 24-1089 D842V): as the sequence (P16234 24-1089 V561D) above, with D538V, D819V counted along it
T6 sequence (Q13464 whole entry): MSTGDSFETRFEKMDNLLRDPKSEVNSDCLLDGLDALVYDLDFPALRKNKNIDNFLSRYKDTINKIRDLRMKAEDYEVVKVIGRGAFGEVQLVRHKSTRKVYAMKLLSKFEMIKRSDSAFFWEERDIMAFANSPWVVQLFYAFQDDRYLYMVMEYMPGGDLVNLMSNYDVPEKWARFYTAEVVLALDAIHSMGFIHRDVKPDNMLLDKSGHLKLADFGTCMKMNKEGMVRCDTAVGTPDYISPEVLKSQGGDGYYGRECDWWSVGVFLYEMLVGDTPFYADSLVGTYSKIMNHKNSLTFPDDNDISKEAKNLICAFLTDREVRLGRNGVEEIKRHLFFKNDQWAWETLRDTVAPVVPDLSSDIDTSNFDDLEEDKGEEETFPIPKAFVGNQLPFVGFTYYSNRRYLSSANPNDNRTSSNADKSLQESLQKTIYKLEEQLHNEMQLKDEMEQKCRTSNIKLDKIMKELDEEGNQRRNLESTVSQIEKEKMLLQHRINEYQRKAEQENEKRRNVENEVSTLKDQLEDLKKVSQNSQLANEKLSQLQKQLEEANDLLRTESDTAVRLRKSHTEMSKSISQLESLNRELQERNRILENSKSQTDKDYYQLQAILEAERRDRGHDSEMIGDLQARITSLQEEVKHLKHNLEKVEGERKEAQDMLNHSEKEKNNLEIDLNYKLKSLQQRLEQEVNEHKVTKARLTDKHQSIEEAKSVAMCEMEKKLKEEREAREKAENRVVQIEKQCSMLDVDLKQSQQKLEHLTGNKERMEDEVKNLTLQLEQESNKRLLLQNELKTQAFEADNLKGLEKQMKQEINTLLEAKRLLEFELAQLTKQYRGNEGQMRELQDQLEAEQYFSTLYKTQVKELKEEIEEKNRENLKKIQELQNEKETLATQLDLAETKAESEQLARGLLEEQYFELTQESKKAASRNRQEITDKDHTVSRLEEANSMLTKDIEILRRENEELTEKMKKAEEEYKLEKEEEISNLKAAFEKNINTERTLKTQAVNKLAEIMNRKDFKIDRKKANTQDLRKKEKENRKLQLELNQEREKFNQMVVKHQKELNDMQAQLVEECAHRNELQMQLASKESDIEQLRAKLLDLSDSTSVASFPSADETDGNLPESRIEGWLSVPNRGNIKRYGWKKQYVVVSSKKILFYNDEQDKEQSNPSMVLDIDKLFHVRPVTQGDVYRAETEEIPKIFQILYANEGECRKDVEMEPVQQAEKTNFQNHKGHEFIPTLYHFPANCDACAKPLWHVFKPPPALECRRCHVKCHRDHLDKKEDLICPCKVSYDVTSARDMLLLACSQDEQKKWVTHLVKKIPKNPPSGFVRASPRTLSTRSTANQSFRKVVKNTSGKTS
T9 sequence (Q15139 whole entry): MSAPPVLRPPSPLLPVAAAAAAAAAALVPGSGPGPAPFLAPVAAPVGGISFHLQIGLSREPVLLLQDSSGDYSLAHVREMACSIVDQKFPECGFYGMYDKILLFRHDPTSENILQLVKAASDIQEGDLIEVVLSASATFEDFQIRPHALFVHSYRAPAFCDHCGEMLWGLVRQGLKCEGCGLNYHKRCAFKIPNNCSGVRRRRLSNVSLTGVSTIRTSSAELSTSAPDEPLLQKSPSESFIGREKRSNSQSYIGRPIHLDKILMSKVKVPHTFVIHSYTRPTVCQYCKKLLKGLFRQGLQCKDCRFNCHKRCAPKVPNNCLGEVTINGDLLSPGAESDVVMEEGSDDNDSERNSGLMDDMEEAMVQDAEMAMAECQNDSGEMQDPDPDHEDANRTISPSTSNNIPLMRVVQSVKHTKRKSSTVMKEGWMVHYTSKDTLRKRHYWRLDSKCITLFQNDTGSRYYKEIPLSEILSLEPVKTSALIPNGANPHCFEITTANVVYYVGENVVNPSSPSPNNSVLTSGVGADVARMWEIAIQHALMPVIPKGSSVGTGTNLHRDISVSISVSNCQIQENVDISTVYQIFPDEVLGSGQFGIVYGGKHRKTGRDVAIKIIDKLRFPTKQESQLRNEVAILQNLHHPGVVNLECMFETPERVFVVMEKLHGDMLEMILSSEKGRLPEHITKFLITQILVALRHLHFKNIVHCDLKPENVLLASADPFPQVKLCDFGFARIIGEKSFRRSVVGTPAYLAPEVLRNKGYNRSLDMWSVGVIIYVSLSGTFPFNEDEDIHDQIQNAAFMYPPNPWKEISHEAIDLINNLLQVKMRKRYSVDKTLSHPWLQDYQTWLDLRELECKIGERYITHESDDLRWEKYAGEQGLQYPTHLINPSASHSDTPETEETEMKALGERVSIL

SMILES: CC(O)CS(=O)(=O)Nc1ccc(F)c(C(=O)c2c[nH]c3ncc(-c4ccc(Cl)cc4)cc23)c1F (stereo not shown) [200-115]
- inhibition at 0.1 µM (AXL): < 30%
- inhibition at 0.1 µM (AurB): < 30%

SMILES: O=C(c1c(F)ccc(NS(=O)(=O)CCCO)c1F)c1c[nH]c2ncc(-c3ccc(Cl)cc3)cc12 [200-17, N-[3-[5-(4-chlorophenyl)-1H-pyrrolo[2,3-b]pyridine-3-carbonyl]-2,4-difluorophenyl]-3-hydroxypropane-1-sulfonamide]
- inhibition at 1 µM (ROCK1): < 50%
- inhibition at 1 µM (PDGFRα(T674I); inhibitor concentration 1 μM): < 50%
- inhibition at 1 µM (FRK): > 50%
- inhibition at 1 µM (ROCK2): < 50%
- inhibition at 1 µM (PDGFRα(D842V); inhibitor concentration 1 μM): > 50%
- inhibition at 1 µM (PKD1): < 50%
- inhibition at 0.01 µM (RET(S891A); [3]): < 30%
- inhibition at 0.1 µM (RET(S891A); inhibitor concentration 0.1 μM): > 50%
- inhibition at 1 µM (RET(S891A); inhibitor concentration 1 μM): > 50%
- inhibition at 1 µM (MAP2K5): > 50%
- inhibition at 0.01 µM (PDGFRα(V561D); [3]): < 30%
- inhibition at 0.1 µM (PDGFRα(V561D); inhibitor concentration 0.1 μM): > 50%
- inhibition at 1 µM (PDGFRα(V561D); inhibitor concentration 1 μM): > 50%
- IC50 [1]: < 20 µM

Results, then the compound that gave them:

- PDGFRα(T674I) inhibition (PDGFRα(T674I); [2]): <20%
- PDGFRα(D842V) inhibition (PDGFRα(D842V); [2]): <20%
- PDGFRα(V561D) inhibition (PDGFRα(V561D); [2]): <20%
- IC50 [1]: < 20 µM
SMILES: C/C=C/S(=O)(=O)Nc1ccc(F)c(C(=O)c2c[nH]c3ncc(-c4ccc(Cl)cc4)cc23)c1F [200-93b]

- inhibition at 0.1 µM (AXL): < 30%
- inhibition at 0.1 µM (AurB): < 30%
- IC50 [1]: < 20 µM
SMILES: O=C(c1c(F)ccc(NS(=O)(=O)CC(O)CO)c1F)c1c[nH]c2ncc(-c3ccc(Cl)cc3)cc12 (stereo not drawn) [200-73, N-[3-[5-(4-chlorophenyl)-lH-pyrrolo [2,3-b]pyridine-3-carbonyl]-2,4-difluorophenyl]-2,3-dihydroxypropane-l-sulfonamide]

- inhibition at 0.1 µM (AXL): < 30%
- inhibition at 0.1 µM (AurB): < 30%
SMILES: CC(=O)CS(=O)(=O)Nc1ccc(F)c(C(=O)c2c[nH]c3ncc(-c4ccc(Cl)cc4)cc23)c1F [200-117]
